In series [1] the test system is Aspergillus niger ATCC 16404. As to the kind of experiment: MIC by broth microdilution (RPMI 1640). Format: cell-based. Conditions: ATCC16404. How it is done: (§1) We have tested the antimicrobial activity in vitro of over 100 tris(indolyl)methane derivatives against 16 strains of Gram-positive, Gram-negative bacteria and fungi including either sensitive or drug-resistant strains from ATCC, as well as resistant clinical isolates from the culture collection of the Laboratory for Control of Hospital Infections (Sechenov University, Moscow, Russia). The minimum inhibitory concentrations (MICs) were determined by the microdilution method in a cation-adjusted Müller–Hinton medium for bacteria and in a liquid culture medium RPMI 1640 with L-glutamine without sodium bicarbonate for fungi in accordance with the requirements of the Institute of Clinical and Laboratory Standards (CLSI/NCCLS). […] As a rule, their activity against Gram-negative bacteria was usually not that high. […] For comparison, the antimicrobial activity of prototype 4 is shown. The antibacterial antibiotic levofloxacin and the antifungal amphotericin B were used as reference drugs (Table 1).
(§2) The synthesis of compounds and the scheme of their preparation and purification, as well as physicochemical characteristics, were described earlier. To evaluate the biological activity in vitro, the compounds were dissolved in DMSO at a concentration of 2.0–6.4 mg/mL, followed by preparation of two-fold dilutions in the same solvent, if necessary. The solutions were further diluted in an aqueous medium for the final concentration of DMSO not to exceed 1%, and the concentration of the compounds ranged from 64.0 to 0.13 μg/mL. To study compounds in vivo, solutions for intravenous administration in 5% glucose solution were prepared. Solutions were sterilized by filtration through 0.22 µm filters (Millipore, Burlington, MA, USA).
(§3) Strains of Gram-positive, Gram-negative bacteria and fungi including sensitive or drug-resistant strains from ATCC, as well as resistant clinical isolates from the culture collection of the Laboratory for Control of Hospital Infections (Sechenov University, Moscow, Russia), were used. Clinical isolates of Gram-positive bacteria Staphylococcus aureus 5 (MRSA), Staphylococcus aureus 10, Staphylococcus aureus 100KC (MRSA), Staphylococcus epidermidis 533, Staphylococcus haemoliticus 585 and Enterococcus faecium 569, as well as collection cultures of Gram-positive bacteria Staphylococcus aureus ATCC 700699, Staphylococcus aureus ATCC 25923, Staphylococcus aureus ATCC 3798 and collection cultures of Gram-negative bacteria Escherichia coli ATCC 25922, Klebsiella pneumoniae ATCC 13883, Proteus vulgaris ATCC 13315, Salmonella cholerasuis ATCC 14028, Pseudomonas aeruginosa ATCC 27853 and collection cultures of the yeast Candida albicans ATCC 14053 and the fungi Aspergillus niger ATCC 16404 were used. To grow the microorganisms, we used Trypticase Soy Agar (TSA, Sigma-Aldrich Co., Burlington, MA, USA). Trypticase Soy Agar, BBL, was used for cultivation of Staphylococcus spp. and E. coli. For cultivation of Enterococcus spp. and P. aeruginosa we used a ready-made dry medium Columbia Agar Base, BBL. The media were sterilized by autoclaving at 121 °C for 15 min. Yeast culture C. albicans was grown on Sabouraud agar (peptone—10 g, glucose—40 g, agar—20 g, distilled water—1 L, pH 6.0), and filamentous fungi A. niger was grown on potato–glucose agar (potatoes—200 g, glucose—20 g, agar—15 g, distilled water—1 L, pH 5.5–6.0).
(§4) To determine the antibacterial effect, a liquid Müller–Hinton medium (Becton, Dickinson and Company, Cockeysville, MD, USA) was used; to determine the effect of compounds on fungi we used RPMI 1640 medium with L-glutamine, without sodium bicarbonate, which was prepared from a dry medium (ICN Biomedicals Inc., Costa Mesa, CA, USA) by dilution in distilled water, subsequent buffering with 0.165 M of morpholinepropanesulfonic acid (MOPS, Acros Organics B.V.B.A., Morris Plains, NJ, USA) and adjusting the pH of the medium to 7.0 by adding 1 N of NaOH solution. […]

The test system of series [2] is Candida albicans ATCC 14053. Briefly: MIC by broth microdilution (RPMI 1640). Format: cell-based. The settings on record: ATCC14053. How it is done:
as §1, §2, §3, §4
In general terms: In broth dilution the organism is exposed to a series of concentrations in liquid medium.

Series [3] is described as follows: Acute toxicity study, intravenous. Conditions: female, SHK, mouse, in vivo, mice, single intravenous; for MTD: read-out: MTD (LD10). The class given is in vivo. As to the method:
(§5) In toxicological experiments with each compound, 72 to 108 animals were used and divided into 8 or 9 experimental groups (6 to 12 mice each), in which the animals received various doses of the tested compounds. There was also a control group of animals, which was injected with the corresponding solvent instead of the experimental compound, and a control group of intact animals. The prepared substances were injected into the animals intravenously (into the tail vein); the dose range was from 1.0 to 100 mg/kg.
(§6) The study was conducted on adult female SHK mice (18–20 g) obtained from the animal breeding unit of the FMBA (Scientific Center for Biomedical Technologies of the Federal Biomedical Agency, Moscow, Russia). The animals were randomly divided into groups (n = 6 for the study of acute toxicity, n = 10 (or 8) to study the efficacy of suppressing staphylococcal sepsis). The study of the effectiveness of drugs in the treatment of staphylococcal sepsis required the use of 110–175 mice for each drug, 10 animals per group. The animal study was approved by the Ethics of Animal Experimentation of Gause Institute of New Antibiotics (protocol No 13/2019).
(§7) To prepare solutions of preparations suitable for intravenous administration, dried test compounds with a purity of at least 99% were dissolved in a 5% glucose solution for intravenous administration at a concentration of 3.2 or 6.4 mg/mL. The solutions were sterilized by filtration through Sterivex 0.22 μm filters (Millipore, Burlington, MA, USA). Sterile solutions of drugs with a reduced concentration were then prepared, which allowed for the introduction ofvarious doses of drugs with the same volume (0.2 mL) of solutions. The test preparations were stored at a temperature no higher than 25 °C.
(§8) The study of acute toxicity of each drug was conducted on 72 mice (6 mice per group) using a solution of the test drug prepared in 5% glucose solution. The drug was injected into the tail vein of the animals (0.2 mL) using a syringe with a metal needle in a dose range of 1.0 mg/kg to 70 mg/kg.
(§9) From the first day after administration, the animals were under continuous observation. The number of dead animals and the time of their death were recorded daily. The body weight of the animals and their food consumption was recorded once a week, and the clinical signs of the animals’ health were assessed daily. The duration of observation of the animals was at least 30 days after the last death of the animal. Doses characterizing the toxicity of drugs were calculated by the Litchfield and Wilcoxon method using the StatPlus 2006 software AnalystSoft StatPlus—statistical analysis program, version 2006 (http://www.analystsoft.com/, accessed 11 January 2022). The mean and standard deviation were calculated for all data. The differences are defined as significant at p ≤ 0.05.

A further series deals with SHK mice. Briefly: Acute toxicity study, intravenous. The class given is in vivo. The settings on record: for LD16 / LD84 / LD100: single intravenous; for time of death of animals after administration: in words. How it is done:
as §5, §6, §7, §8, §9

In general, MIC refers to the lowest concentration found to suppress growth. A low value points to a more susceptible organism. The term LD50 denotes the dose expected to kill half of the subjects tested.

Compound `OCCCCCn1cc([C+](c2cn(CCCCCO)c3ccccc23)c2cn(CCCCCO)c3ccccc23)c2ccccc21.[Cl-]` [Compound 1, tris(1-(5-Hydroxypentyl)-1H-indol-3-yl) methylium chloride] showed an MIC in series [1] above 64 µg/mL. In series [2], the MIC was above 64 µg/mL. Further, in series [3], the LD50 was 26.2 mg/kg and the MTD was 22.6 mg/kg. Further, the “time of death of animals after drug administration” value in the series on SHK mice (intravenous, lethal doses) is on record as at most 15 min. For the same compound, in the series on SHK mice, the LD16 amounted to 23.4 mg/kg, the LD84 is 28.9 mg/kg and the LD100 was 30.2 mg/kg.
For `CCCn1cc([C+](c2cn(CCC)c3ccccc23)c2cn(C3=C(N)C(=O)NC3=O)c3ccccc23)c2ccccc21.[Cl-]` [Compound 2, (1-(4-Amino-2,5-dioxo-2,5-dihydro-1H-pyrrol-3-yl)-1H-indol-3-yl)bis(1-propyl-1H-indol-3-yl) methylium chloride], the minimal inhibitory concentration (MIC) in series [1] worked out at 8 µg/mL. In series [2], this compound came in with a minimum inhibitory concentration (MIC) of 12 µg/mL. Further, in series [3], the 50% lethal dose (LD50) stood at 41.8 mg/kg and the MTD was found to be 34.1 mg/kg. Further, in the series on SHK mice (intravenous), the “lethal dose causing the death of more than 50% of the animals” value fell in the range of 35 to 50 mg/kg and the “time of death of animals after administration” value is “in the first two hours after administration”. In addition, in the series on SHK mice, the LD16 is 35.8 mg/kg, the LD84 is on record as 47.7 mg/kg and the LD100 came out at 50.7 mg/kg.
Consider `CCCn1cc([C+](c2cn(CCC)c3ccccc23)c2cn(C3=C(N(C)C)C(=O)NC3=O)c3ccccc23)c2ccccc21` [Compound 3, 1-(4-Dimethylamino-2,5-dioxo-2,5-dihydro-1H-pyrrol-3-yl) -1H-indol-3-yl) bis(1-propyl-1H-indol-3-yl) methylium chloride], for which, in series [1], the MIC is 2 µg/mL. In series [2], this compound gave an MIC of 2 µg/mL. In addition, in series [3], the LD50 worked out at 24.2 mg/kg and the MTD was 16.9 mg/kg. Besides, in the series with SHK mice (intravenous), the “lethal dose causing the death of more than 50% of the animals” value lay in the range of 25 to 40 mg/kg and the “time of death of animals after administration” value is given as “during the first day after administration”. Further, in the series on SHK mice, the LD16 amounted to 18.5 mg/kg, the LD84 was 29.8 mg/kg and the LD100 was determined as 32.6 mg/kg.

For the origin of these results see PMC8878324, “Evaluation of New Antimicrobial Agents Based on tris(1H-Indol-3-yl)methylium Salts: Activity, Toxicity, Suppression of Experimental Sepsis in Mice” (Pharmaceuticals, 2022).
